Measured values as given in patent EP1585727B1, “INDOLES USEFUL IN THE TREATMENT OF ANDROGEN-RECEPTOR RELATED DISEASES” (priority 2002, dated 2004).
Where a name gives a salt, the structure may show the parent alone.

molecular target: T1, human androgen receptor (Homo sapiens, UniProt P10275); experiment: Androgen receptor transactivation assay, antiandrogenic activity: inhibition of transactivation in the presence of 1 nM DHT (CHO-AR-pMMTV-LUC cells; Table 4); type: cell-based; conditions: antiandrogenic activity, in the presence of 1 nM DHT; read-out: ant EC50
T1 construct: expressed in transfected cells; host or cells: Chinese hamster ovary (CHO) cells, cell line CHO-AR-pMMTV-LUC 1G12-A5-CA
T1 sequence (P10275 1-920): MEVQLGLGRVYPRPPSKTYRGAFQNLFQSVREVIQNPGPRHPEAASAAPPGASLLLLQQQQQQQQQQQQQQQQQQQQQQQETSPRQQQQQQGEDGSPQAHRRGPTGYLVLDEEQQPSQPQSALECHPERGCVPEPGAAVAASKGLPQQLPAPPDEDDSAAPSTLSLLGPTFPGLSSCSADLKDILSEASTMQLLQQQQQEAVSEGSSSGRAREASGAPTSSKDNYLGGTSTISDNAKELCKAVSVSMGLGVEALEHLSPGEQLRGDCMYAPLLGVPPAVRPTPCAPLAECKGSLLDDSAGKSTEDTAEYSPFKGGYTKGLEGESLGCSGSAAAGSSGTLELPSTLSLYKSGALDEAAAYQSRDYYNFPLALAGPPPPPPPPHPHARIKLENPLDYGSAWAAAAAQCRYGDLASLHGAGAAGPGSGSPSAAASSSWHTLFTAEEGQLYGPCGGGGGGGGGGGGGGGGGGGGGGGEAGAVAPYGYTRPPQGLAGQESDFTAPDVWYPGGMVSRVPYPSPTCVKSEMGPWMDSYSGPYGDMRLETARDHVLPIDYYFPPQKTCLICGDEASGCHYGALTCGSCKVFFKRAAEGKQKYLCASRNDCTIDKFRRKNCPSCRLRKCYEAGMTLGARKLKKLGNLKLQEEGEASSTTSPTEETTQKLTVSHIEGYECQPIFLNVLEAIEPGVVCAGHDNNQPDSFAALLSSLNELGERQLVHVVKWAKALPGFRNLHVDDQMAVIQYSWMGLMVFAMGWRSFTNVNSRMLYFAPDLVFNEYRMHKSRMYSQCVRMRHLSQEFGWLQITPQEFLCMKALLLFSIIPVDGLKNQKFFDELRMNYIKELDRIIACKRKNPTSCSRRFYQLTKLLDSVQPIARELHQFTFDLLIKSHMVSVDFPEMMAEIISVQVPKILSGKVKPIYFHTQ
Description: Compounds were tested for their Androgen Receptor activity in a transactivation assay and in a binding assay.
The (anti-)androgenic activity of test compounds (EC50 and intrinsic activity) was determined in an in vitro bioassay of Chinese hamster ovary (CHO) cells stably transfected with the human androgen receptor expression plasmid and a reporter plasmid in which the MMTV-promoter is linked to the luciferase reporter gene. The cell-line CHO-AR-pMMTV-LUC 1G12-AS-CA is described in Schoonen et al. (2000), Journal of Steroid Biochemistry and Molecular Biology 74(4):213-222. The antiandrogenic activity of a test compound was determined by the inhibition of the transactivation via the androgen receptor of the enzyme luciferase in the presence of 1 nM DHT (5 α-dihydrotestosterone, 17β-hydroxy-5α-androstan-3-one). Intrinsic activity of antiandrogenic activity was determined in the presence of the reference antiandrogen 2-Hydroxy-2-methyl-N-(4-nitro-3-trifluoromethyl-phenyl)-propionamide (Hydroxyflutamide), and set at 100%. For androgenic activity, maximal intrinsic activity in the presence of 100 nM DHT was set at 100%. Table 4 Androgen receptor activity

Row | SMILES | EC50 [µM]
1 | CC(C)NC(=O)c1ccc2c(Sc3ccccc3[N+](=O)[O-])cn(Cc3cc(F)cc(F)c3)c2c1 [Compound 46] | > 10

same assay, conditions: in the presence of 1 nM DHT; intrinsic activity relative to reference antiandrogen Hydroxyflutamide (set at 100%); read-out: ant efficacy

Row | SMILES | Emax [%]
2 | COc1ccc2c(Sc3ccccc3[N+](=O)[O-])cn(Cc3cc(F)ccc3F)c2c1 [Compound 1] | < 20
3 | COc1ccc2c(Sc3ccccc3[N+](=O)[O-])cn(Cc3cccc(C)c3F)c2c1 [Compound 2] | < 20
4 | COc1ccc2c(Sc3ccccc3[N+](=O)[O-])cn(Cc3ccccc3Cl)c2c1 [Compound 3] | < 20
5 | COc1ccc2c(Sc3ccccc3[N+](=O)[O-])cn(Cc3ccccc3C#N)c2c1 [Compound 4] | 20 to 50
6 | COc1ccc2c(Sc3ccccc3[N+](=O)[O-])cn(Cc3ccccc3F)c2c1 [Compound 5] | < 20
7 | COc1ccc2c(Sc3ccccc3[N+](=O)[O-])cn(Cc3ccccc3C)c2c1 [Compound 7] | < 20
8 | COc1ccc2c(Sc3ccccc3[N+](=O)[O-])cn(Cc3ccccn3)c2c1 [Compound 10, 6-Methoxy-3-(2-nitro-phenylsulfanyl)-1-pyridin-2 ylmethyl-1H-indole monohydrochloride] | < 20
9 | COc1ccc2c(Sc3ccccc3[N+](=O)[O-])cn(Cc3ccccc3C(F)(F)F)c2c1 [Compound 12] | < 20
10 | COc1ccc2c(Sc3ccccc3[N+](=O)[O-])cn(Cc3cc(C)on3)c2c1 [Compound 13] | < 20
11 | COc1ccc2c(Sc3ccccc3[N+](=O)[O-])cn(Cc3ccc(Cl)c(Cl)c3)c2c1 [Compound 14] | < 20
12 | COc1ccc2c(Sc3ccccc3[N+](=O)[O-])cn(Cc3cc(Cl)cc(Cl)c3)c2c1 [Compound 15] | < 20
13 | CNC(=O)c1ccccc1Sc1cn(Cc2cc(F)cc(F)c2)c2cc(OC)ccc12 [Compound 17, 2-[1-(3,5-Difluoro-benzyl)-6-methoxy-1H-indol-3-ylsulfanyl]-N-methyl-benzamide] | 50 to 80
14 | COC(=O)c1ccccc1Sc1cn(Cc2cc(F)cc(F)c2)c2cc(OC)ccc12 [Compound 19, 2-[1-(3,5-Difluoro-benzyl)-6-methoxy-1H-indol-3-ylsulfanyl]-benzoic acid methyl ester] | < 20
15 | COc1ccc2c(Sc3ccccc3C#N)cn(Cc3cc(F)cc(F)c3)c2c1 [Compound 20, 2-[1-(3,5-Difluoro-benzyl)-6-methoxy-1H-indol-3-ylsulfanyl]-benzonitrile] | < 20
16 | O=[N+]([O-])c1ccccc1Sc1cn(Cc2cc(F)cc(F)c2)c2cc(Br)ccc12 [Compound 22] | < 20
17 | O=[N+]([O-])c1ccccc1Sc1cn(Cc2cc(F)cc(F)c2)c2cc(C(F)(F)F)ccc12 [Compound 23] | < 20
18 | O=[N+]([O-])c1ccccc1Sc1cn(Cc2cc(F)cc(F)c2)c2cc(CO)ccc12 [Compound 24] | < 20
19 | O=[N+]([O-])c1ccccc1Sc1cn(Cc2cc(F)cc(F)c2)c2cc(Cl)ccc12 [Compound 25] | < 20
20 | N#Cc1ccc2c(Sc3ccccc3[N+](=O)[O-])cn(Cc3cc(F)cc(F)c3)c2c1 [Compound 26, 1-(3,5-Difluoro-benzyl)-3-(2-nitro-phenylsulfanyl)-1H-indole-6-carbonitrile] | < 20
21 | O=C(c1ccc2c(Sc3ccccc3[N+](=O)[O-])cn(Cc3cc(F)cc(F)c3)c2c1)N1CCCC1 [Compound 27] | < 20

Row | SMILES | Emax [%]
22 | O=C(c1ccc2c(Sc3ccccc3[N+](=O)[O-])cn(Cc3cc(F)cc(F)c3)c2c1)N1CCOCC1 [Compound 28] | < 20
23 | CN1CCN(C(=O)c2ccc3c(Sc4ccccc4[N+](=O)[O-])cn(Cc4cc(F)cc(F)c4)c3c2)CC1 [Compound 29] | < 20
24 | O=C(O)c1ccc2c(Sc3ccccc3[N+](=O)[O-])cn(Cc3cc(F)cc(F)c3)c2c1 [Compound 30, 1-(3,5-Difluoro-benzyl)-3-(2-nitro-phenylsulfanyl)-1H-indole-6-carboxylic acid] | < 20
25 | COC(=O)c1ccc2c(Sc3ccccc3[N+](=O)[O-])cn(Cc3cc(F)cc(F)c3)c2c1 [Compound 31, 1-(3,5-Difluoro-benzyl)-3-(2-nitro-phenylsulfanyl)-1H-indole-6-carboxylic acid methyl ester] | < 20
26 | NC(=O)c1ccc2c(Sc3ccccc3[N+](=O)[O-])cn(Cc3cc(F)cc(F)c3)c2c1 [Compound 33, 1-(3,5-Difluoro-benzyl)-3-(2-nitro-phenylsulfanyl)-1H-indole-6-carboxylic acid amide] | < 20
27 | O=C(NCc1ccco1)c1ccc2c(Sc3ccccc3[N+](=O)[O-])cn(Cc3cc(F)cc(F)c3)c2c1 [Compound 34] | < 20
28 | O=C(NCc1cccnc1)c1ccc2c(Sc3ccccc3[N+](=O)[O-])cn(Cc3cc(F)cc(F)c3)c2c1 [Compound 35] | < 20
29 | CN(C)CCNC(=O)c1ccc2c(Sc3ccccc3[N+](=O)[O-])cn(Cc3cc(F)cc(F)c3)c2c1 [Compound 36] | < 20
30 | O=C(NCCO)c1ccc2c(Sc3ccccc3[N+](=O)[O-])cn(Cc3cc(F)cc(F)c3)c2c1 [Compound 37] | < 20
31 | COCCNC(=O)c1ccc2c(Sc3ccccc3[N+](=O)[O-])cn(Cc3cc(F)cc(F)c3)c2c1 [Compound 38] | < 20
32 | COC(=O)CNC(=O)c1ccc2c(Sc3ccccc3[N+](=O)[O-])cn(Cc3cc(F)cc(F)c3)c2c1 [Compound 39] | < 20
33 | CN(C)C(=O)CNC(=O)c1ccc2c(Sc3ccccc3[N+](=O)[O-])cn(Cc3cc(F)cc(F)c3)c2c1 [Compound 40] | < 20
34 | O=C(NCC1CC1)c1ccc2c(Sc3ccccc3[N+](=O)[O-])cn(Cc3cc(F)cc(F)c3)c2c1 [Compound 41] | < 20
35 | CC(C)CNC(=O)c1ccc2c(Sc3ccccc3[N+](=O)[O-])cn(Cc3cc(F)cc(F)c3)c2c1 [Compound 42] | < 20
36 | O=C(NC1CC1)c1ccc2c(Sc3ccccc3[N+](=O)[O-])cn(Cc3cc(F)cc(F)c3)c2c1 [Compound 44] | < 20
37 | CCNC(=O)c1ccc2c(Sc3ccccc3[N+](=O)[O-])cn(Cc3cc(F)cc(F)c3)c2c1 [Compound 45] | < 20
38 | CNC(=O)c1ccc2c(Sc3ccccc3[N+](=O)[O-])cn(Cc3cc(F)cc(F)c3)c2c1 [Compound 47, 1-(3,5-Difluoro-benzyl)-3-(2-nitro-phenylsulfanyl)-1H-indole-6-carboxylic acid methylamide] | < 20
39 | CN(C)C(=O)c1ccc2c(Sc3ccccc3[N+](=O)[O-])cn(Cc3cc(F)cc(F)c3)c2c1 [Compound 49] | < 20
40 | O=[N+]([O-])c1ccccc1Sc1cn(Cc2cc(F)cc(F)c2)c2cc(F)ccc12 [Compound 50] | < 20

same assay, conditions: read-out: ant efficacy, in the presence of 1 nM DHT; intrinsic activity relative to reference antiandrogen Hydroxyflutamide (set at 100%)

Row | SMILES | Emax [%]
41 | COc1ccc2c(Sc3ccccc3[N+](=O)[O-])cn(Cc3cccc([N+](=O)[O-])c3C)c2c1 [Compound 6] | < 20
42 | COc1ccc2c(Sc3ccccc3[N+](=O)[O-])cn(Cc3ccccc3[N+](=O)[O-])c2c1 [Compound 8] | < 20
43 | COc1ccc2c(Sc3ccccc3[N+](=O)[O-])cn(Cc3ccccn3)c2c1 [Compound 9, 6-Methoxy-3-(2-nitro-phenylsulfanyl)-1-pyridin-2-ylmethyl-1H-indole] | 20 to 50
44 | COc1ccc2c(Sc3ccccc3[N+](=O)[O-])cn(CC3CCCCO3)c2c1 (stereo not shown) [Compound 11] | < 20
45 | COc1ccc2c(Sc3ccccc3CO)cn(Cc3cc(F)cc(F)c3)c2c1 [Compound 16, {2-[1-(3,5-Difluoro-benzyl)-6-methoxy-1H-indol-3-ylsulfanyl]-phenyl}-methanol] | 20 to 50
46 | CCN(CC)C(=O)c1ccc2c(Sc3ccccc3[N+](=O)[O-])cn(Cc3cc(F)cc(F)c3)c2c1 [Compound 32] | 20 to 50
47 | O=C(NCc1ccccc1)c1ccc2c(Sc3ccccc3[N+](=O)[O-])cn(Cc3cc(F)cc(F)c3)c2c1 [Compound 43] | 20 to 50
48 | CC(C)NC(=O)c1ccc2c(Sc3ccccc3[N+](=O)[O-])cn(Cc3cc(F)cc(F)c3)c2c1 [Compound 46] | 20 to 50
49 | CCCNC(=O)c1ccc2c(Sc3ccccc3[N+](=O)[O-])cn(Cc3cc(F)cc(F)c3)c2c1 [Compound 48] | 20 to 50
